Patent EP4810052A2, “HCRHR2 SELECTIVE POLYPEPTIDES” (Gubra A/S, priority 2023, dated 2026)
Read-outs that look alike come from different tables or passages of the source. Starred links: 1 amine or outer side, 2 acyl side, 3 side chain; linkers in the order of their positions; H or OH if unused. Non-standard residues stand in square brackets, D forms with d. Residues, ends and D or L forms follow the SMILES beside them. Groups on a side chain read outwards from the residue. *: point of attachment. C20 diacid = O=C(O)CCCCCCCCCCCCCCCCCCC(=O)*; γGlu = O=C(O)[C@H](CCC(=O)[*:2])N[*:1]; NMeI = CC[C@H](C)[C@H](NC)C(=O)O; Nle = CCCC[C@H](N)C(=O)O; AEEA = NCCOCCOCC(=O)O; Aib = CC(C)(N)C(=O)O

Experiments:
[1] = target: T1, hCRHR1 (Homo sapiens, UniProt P34998); assay: HTRF cAMP assay, determination of hCRHR1 potency (peptide libraries 5 conc., purified peptides 11 conc.); assay type: cell-based
T1 sequence (P34998 24-415): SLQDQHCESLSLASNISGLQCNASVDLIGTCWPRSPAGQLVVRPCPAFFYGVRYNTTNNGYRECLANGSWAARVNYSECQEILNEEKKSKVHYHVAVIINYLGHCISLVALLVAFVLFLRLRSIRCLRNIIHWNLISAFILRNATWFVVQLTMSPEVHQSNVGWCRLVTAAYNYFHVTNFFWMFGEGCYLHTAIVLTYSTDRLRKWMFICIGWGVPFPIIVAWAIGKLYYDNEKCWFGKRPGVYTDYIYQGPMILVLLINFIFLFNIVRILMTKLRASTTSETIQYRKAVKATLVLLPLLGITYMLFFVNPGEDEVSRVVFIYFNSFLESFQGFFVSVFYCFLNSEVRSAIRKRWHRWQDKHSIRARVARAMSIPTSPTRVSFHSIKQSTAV
Method in brief: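 Cellular cAMP was read by time-resolved FRET between d2-labelled cAMP and cryptate anti-cAMP antibody. The cells were freshly thawed suspension CHO-K1 cells stably expressing human CRHR1.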

[2] = target: T2, hCRHR2 (Homo sapiens, UniProt Q13324); assay: HTRF cAMP assay, determination of hCRHR2 potency (peptide libraries 5 conc., purified peptides 11 conc.); assay type: cell-based
T2 sequence (Q13324 1-411): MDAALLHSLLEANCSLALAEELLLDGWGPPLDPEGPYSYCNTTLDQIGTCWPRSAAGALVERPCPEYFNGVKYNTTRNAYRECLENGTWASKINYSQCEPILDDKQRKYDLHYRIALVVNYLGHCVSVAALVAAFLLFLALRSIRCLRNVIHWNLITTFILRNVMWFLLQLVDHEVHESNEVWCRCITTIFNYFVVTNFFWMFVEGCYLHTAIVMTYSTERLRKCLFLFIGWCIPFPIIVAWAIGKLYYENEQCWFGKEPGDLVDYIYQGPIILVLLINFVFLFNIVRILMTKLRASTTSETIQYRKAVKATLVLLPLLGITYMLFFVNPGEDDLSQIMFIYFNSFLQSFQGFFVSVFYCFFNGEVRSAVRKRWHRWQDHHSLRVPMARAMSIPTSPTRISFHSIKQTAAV
Method in brief: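 Cells: CHO-K1/hCRHR2 stable clone, suspension, freshly thawed. Readout: competitive TR-FRET, anti-cAMP cryptate vs cAMP-d2. Analysis: sigmoid variable-slope nonlinear regression → EC50.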

[3] = Table 3, matched molecular pairs X^38 L vs Nle, peptide library of Example 4, read-out: hCRHR1 pEC50 (converted)
[4] = Table 3, matched molecular pairs X^38 L vs Nle, peptide library of Example 4, read-out: hCRHR2 pEC50 (converted)
[5] = library peptides, matched molecular pairs L vs Nle in position X^38, read-out: Potency hCRHR1 pEC50 (converted)
[6] = library peptides, matched molecular pairs L vs Nle in position X^38, read-out: Potency hCRHR2 pEC50 (converted)

Row | EC50 [1, 3] [nM] | EC50 [2, 4] [nM] | EC50 [1, 5] [nM] | EC50 [2, 6] [nM] | Structure (SMILES) | further results
1 | 79400 | 0.501 | – | – | CC[C@H](C)[C@H](N)C(=O)N[C@H](C(=O)N[C@@H](CC(C)C)C(=O)N[C@@H](CO)C(=O)N[C@@H](CC(C)C)C(=O)N[C@@H](CC(=O)O)C(=O)N[C@H](C(=O)N1CCC[C@H]1C(=O)N[C@H](C(=O)NCC(=O)N[C@@H](CC(C)C)C(=O)N[C@@H](CC(C)C)C(=O)N[C@@H](CCC(N)=O)C(=O)N[C@H](C(=O)N[C@@H](CC(C)C)C(=O)N[C@@H](CC(C)C)C(=O)N[C@@H](CCC(=O)O)C(=O)N[C@@H](CCC(N)=O)C(=O)N[C@@H](C)C(=O)N[C@@H](CCCNC(=N)N)C(=O)N[C@@H](C)C(=O)N[C@@H](CCCNC(=N)N)C(=O)N[C@@H](CO)C(=O)N[C@@H](C)C(=O)N[C@@H](CCCNC(=N)N)C(=O)N[C@@H](CCC(=O)O)C(=O)N[C@@H](CCC(N)=O)C(=O)N[C@@H](C)C(=O)N[C@@H](CCCCNC(=O)COCCOCCNC(=O)COCCOCCNC(=O)CC[C@H](NC(=O)CC[C@H](NC(=O)CCCCCCCCCCCCCCCCCCC(=O)O)C(=O)O)C(=O)O)C(=O)N[C@H](C(=O)N[C@@H](CC(N)=O)C(=O)N[C@@H](C)C(=O)N[C@@H](CCC(=O)O)C(=O)N[C@H](C(=O)N[C@@H](CC(C)C)C(=O)N[C@@H](C)C(=O)N[C@@H](CCC(=O)O)C(=O)N[C@H](C(N)=O)[C@@H](C)CC)[C@@H](C)CC)[C@@H](C)O)[C@@H](C)CC)[C@@H](C)CC)C(C)C)C(C)C [SEQ ID NO: 35] (H-IVLSLDVPIGLLQILLEQARARSAREQAK([AEEA-AEEA-γGlu-γGlu-C20 diacid])TNAEILAEI-NH2) | –
2 | 2510 | 0.316 | – | – | CC[C@H](C)[C@H](N)C(=O)N[C@H](C(=O)N[C@@H](CC(C)C)C(=O)N[C@@H](CO)C(=O)N[C@@H](CC(C)C)C(=O)N[C@@H](CC(=O)O)C(=O)N[C@H](C(=O)N1CCC[C@H]1C(=O)N[C@H](C(=O)NCC(=O)N[C@@H](CC(C)C)C(=O)N[C@@H](CC(C)C)C(=O)N[C@@H](CCC(N)=O)C(=O)N[C@H](C(=O)N[C@@H](CC(C)C)C(=O)N[C@@H](CC(C)C)C(=O)N[C@@H](CCC(=O)O)C(=O)N[C@@H](CCC(N)=O)C(=O)N[C@@H](C)C(=O)N[C@@H](CCCNC(=N)N)C(=O)N[C@@H](C)C(=O)N[C@@H](CCCNC(=N)N)C(=O)N[C@@H](C)C(=O)N[C@@H](CCC(N)=O)C(=O)N[C@@H](CCCNC(=N)N)C(=O)N[C@@H](CCC(N)=O)C(=O)N[C@@H](CCC(N)=O)C(=O)N[C@@H](C)C(=O)N[C@@H](CCCCNC(=O)COCCOCCNC(=O)COCCOCCNC(=O)CC[C@H](NC(=O)CC[C@H](NC(=O)CCCCCCCCCCCCCCCCCCC(=O)O)C(=O)O)C(=O)O)C(=O)N[C@H](C(=O)N[C@@H](CC(N)=O)C(=O)N[C@@H](C)C(=O)N[C@@H](CCC(=O)O)C(=O)N[C@H](C(=O)N[C@@H](CC(C)C)C(=O)N[C@@H](C)C(=O)N[C@@H](CCC(=O)O)C(=O)N[C@H](C(N)=O)C(C)C)[C@@H](C)CC)[C@@H](C)O)[C@@H](C)CC)[C@@H](C)CC)C(C)C)C(C)C [SEQ ID NO: 46] (H-IVLSLDVPIGLLQILLEQARARAQRQQAK([AEEA-AEEA-γGlu-γGlu-C20 diacid])TNAEILAEV-NH2) | –
3 | – | – | 25100 | 0.126 | CC[C@H](C)[C@H](N)C(=O)N[C@H](C(=O)N[C@@H](CC(C)C)C(=O)N[C@@H](CO)C(=O)N[C@@H](CC(C)C)C(=O)N[C@@H](CC(=O)O)C(=O)N[C@H](C(=O)N1CCC[C@H]1C(=O)N[C@H](C(=O)NCC(=O)N[C@@H](CC(C)C)C(=O)N[C@@H](CC(C)C)C(=O)N[C@@H](CCC(N)=O)C(=O)N[C@H](C(=O)N[C@@H](CC(C)C)C(=O)N[C@@H](CC(C)C)C(=O)N[C@@H](CCC(=O)O)C(=O)N[C@@H](CCC(N)=O)C(=O)N[C@@H](C)C(=O)N[C@@H](CCCNC(=N)N)C(=O)N[C@@H](C)C(=O)N[C@@H](CCCNC(=N)N)C(=O)N[C@@H](C)C(=O)N[C@@H](CCC(N)=O)C(=O)N[C@@H](CCCNC(=N)N)C(=O)N[C@@H](CCC(=O)O)C(=O)N[C@@H](CCC(N)=O)C(=O)N[C@@H](C)C(=O)N[C@@H](CCCCNC(=O)COCCOCCNC(=O)COCCOCCNC(=O)CC[C@H](NC(=O)CC[C@H](NC(=O)CCCCCCCCCCCCCCCCCCC(=O)O)C(=O)O)C(=O)O)C(=O)N[C@H](C(=O)N[C@@H](CC(N)=O)C(=O)N[C@@H](C)C(=O)N[C@@H](CCC(=O)O)C(=O)N[C@H](C(=O)N[C@@H](CC(C)C)C(=O)N[C@@H](C)C(=O)N[C@@H](CCC(=O)O)C(=O)N[C@H](C(N)=O)[C@@H](C)CC)[C@@H](C)CC)[C@@H](C)O)[C@@H](C)CC)[C@@H](C)CC)C(C)C)C(C)C [compound 64] (H-IVLSLDVPIGLLQILLEQARARAQREQAK([AEEA-AEEA-γGlu-γGlu-C20 diacid])TNAEILAEI-NH2) | –
4 | – | – | 100 | 0.316 | CC[C@H](C)[C@H](N)C(=O)N[C@H](C(=O)N[C@@H](CC(C)C)C(=O)N[C@@H](CO)C(=O)N[C@@H](CC(C)C)C(=O)N[C@@H](CC(=O)O)C(=O)N[C@H](C(=O)N1CCC[C@H]1C(=O)N[C@H](C(=O)NCC(=O)N[C@@H](CC(C)C)C(=O)N[C@@H](CC(C)C)C(=O)N[C@@H](CCC(N)=O)C(=O)N[C@H](C(=O)N[C@@H](CC(C)C)C(=O)N[C@@H](CC(C)C)C(=O)N[C@@H](CCC(=O)O)C(=O)N[C@@H](CCC(N)=O)C(=O)N[C@@H](C)C(=O)N[C@@H](CCCNC(=N)N)C(=O)N[C@@H](C)C(=O)N[C@@H](CCC(=O)O)C(=O)N[C@@H](C)C(=O)N[C@@H](CC(C)C)C(=O)N[C@@H](CCCNC(=N)N)C(=O)N[C@@H](CCC(N)=O)C(=O)N[C@@H](CCC(N)=O)C(=O)N[C@@H](C)C(=O)N[C@@H](CCCCNC(=O)COCCOCCNC(=O)COCCOCCNC(=O)CC[C@H](NC(=O)CC[C@H](NC(=O)CCCCCCCCCCCCCCCCCCC(=O)O)C(=O)O)C(=O)O)C(=O)N[C@H](C(=O)N[C@@H](CC(N)=O)C(=O)N[C@@H](C)C(=O)N[C@@H](CCC(=O)O)C(=O)N[C@H](C(=O)N[C@@H](CC(C)C)C(=O)N[C@@H](C)C(=O)N[C@@H](CCC(=O)O)C(=O)N[C@H](C(N)=O)C(C)C)[C@@H](C)CC)[C@@H](C)O)[C@@H](C)CC)[C@@H](C)CC)C(C)C)C(C)C [compound 58] (H-IVLSLDVPIGLLQILLEQARAEALRQQAK([AEEA-AEEA-γGlu-γGlu-C20 diacid])TNAEILAEV-NH2) | –
5 | – | – | – | – | CCCC[C@H](NC(=O)[C@@H](NC(=O)[C@H](CCC(=O)O)NC(=O)[C@H](C)NC(=O)[C@H](CC(N)=O)NC(=O)C(C)(C)NC(=O)[C@H](CCCCNC(=O)COCCOCCNC(=O)COCCOCCNC(=O)CC[C@H](NC(=O)CC[C@H](NC(=O)CCCCCCCCCCCCCCCCCCC(=O)O)C(=O)O)C(=O)O)NC(=O)[C@H](C)NC(=O)[C@H](CCC(N)=O)NC(=O)[C@H](CCC(=O)O)NC(=O)[C@H](CCCNC(=N)N)NC(=O)[C@H](C)NC(=O)[C@H](C)NC(=O)[C@H](CCCNC(=N)N)NC(=O)[C@H](C)NC(=O)[C@H](CCCNC(=N)N)NC(=O)[C@H](C)NC(=O)[C@H](CCC(N)=O)NC(=O)[C@H](CCCNC(=N)N)NC(=O)[C@H](CC(C)C)NC(=O)[C@H](CC(C)C)NC(=O)[C@@H](NC(=O)[C@H](CCC(N)=O)NC(=O)[C@H](CC(C)C)NC(=O)[C@H](CC(C)C)NC(=O)CNC(=O)[C@@H](NC(=O)[C@@H]1CCCN1C(=O)[C@@H](NC(=O)[C@H](CC(=O)O)NC(=O)[C@H](CC(C)C)NC(=O)[C@H](CO)NC(=O)[C@H](CC(C)C)NC(=O)[C@@H](NC(=O)[C@@H](NC)[C@@H](C)CC)C(C)C)C(C)C)[C@@H](C)CC)[C@@H](C)CC)[C@@H](C)CC)C(=O)N[C@@H](C)C(=O)N[C@@H](CCC(=O)O)C(=O)N[C@H](C(N)=O)C(C)C [compound 232] (H-[NMeI]VLSLDVPIGLLQILLRQARARAAREQAK([AEEA-AEEA-γGlu-γGlu-C20 diacid])[Aib]NAEI[Nle]AEV-NH2) | EC50 ([1]; Table 4, library peptides having X^38 = Nle, read-out: hCRHR1 pEC50 (converted)): 50100 nM; EC50 ([2]; Table 4, library peptides having X^38 = Nle, read-out: hCRHR2 pEC50 (converted)): 0.158 nM
